{"source": "paper PMC7004565", "about": "“Nucleotide inhibition of the pancreatic ATP-sensitive K^+ channel explored with patch-clamp fluorometry” (eLife, 2020)", "key": {"[1]": {"target": "Kir6.2*,C166S-GFP + SUR1 (Homo sapiens, UniProt Q14654, C166S)", "sequence (Q14654 whole entry C166S)": "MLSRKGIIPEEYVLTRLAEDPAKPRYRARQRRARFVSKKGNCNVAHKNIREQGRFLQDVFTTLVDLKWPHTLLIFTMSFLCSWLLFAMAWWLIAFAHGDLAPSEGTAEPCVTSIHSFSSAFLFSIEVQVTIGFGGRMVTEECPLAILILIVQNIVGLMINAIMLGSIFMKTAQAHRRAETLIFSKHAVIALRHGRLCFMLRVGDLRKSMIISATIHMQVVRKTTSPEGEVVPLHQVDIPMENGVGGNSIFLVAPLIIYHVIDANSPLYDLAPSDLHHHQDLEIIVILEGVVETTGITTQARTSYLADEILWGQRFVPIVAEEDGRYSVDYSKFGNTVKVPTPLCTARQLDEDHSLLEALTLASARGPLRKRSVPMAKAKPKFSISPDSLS", "sequence (Q09428 whole entry partner)": "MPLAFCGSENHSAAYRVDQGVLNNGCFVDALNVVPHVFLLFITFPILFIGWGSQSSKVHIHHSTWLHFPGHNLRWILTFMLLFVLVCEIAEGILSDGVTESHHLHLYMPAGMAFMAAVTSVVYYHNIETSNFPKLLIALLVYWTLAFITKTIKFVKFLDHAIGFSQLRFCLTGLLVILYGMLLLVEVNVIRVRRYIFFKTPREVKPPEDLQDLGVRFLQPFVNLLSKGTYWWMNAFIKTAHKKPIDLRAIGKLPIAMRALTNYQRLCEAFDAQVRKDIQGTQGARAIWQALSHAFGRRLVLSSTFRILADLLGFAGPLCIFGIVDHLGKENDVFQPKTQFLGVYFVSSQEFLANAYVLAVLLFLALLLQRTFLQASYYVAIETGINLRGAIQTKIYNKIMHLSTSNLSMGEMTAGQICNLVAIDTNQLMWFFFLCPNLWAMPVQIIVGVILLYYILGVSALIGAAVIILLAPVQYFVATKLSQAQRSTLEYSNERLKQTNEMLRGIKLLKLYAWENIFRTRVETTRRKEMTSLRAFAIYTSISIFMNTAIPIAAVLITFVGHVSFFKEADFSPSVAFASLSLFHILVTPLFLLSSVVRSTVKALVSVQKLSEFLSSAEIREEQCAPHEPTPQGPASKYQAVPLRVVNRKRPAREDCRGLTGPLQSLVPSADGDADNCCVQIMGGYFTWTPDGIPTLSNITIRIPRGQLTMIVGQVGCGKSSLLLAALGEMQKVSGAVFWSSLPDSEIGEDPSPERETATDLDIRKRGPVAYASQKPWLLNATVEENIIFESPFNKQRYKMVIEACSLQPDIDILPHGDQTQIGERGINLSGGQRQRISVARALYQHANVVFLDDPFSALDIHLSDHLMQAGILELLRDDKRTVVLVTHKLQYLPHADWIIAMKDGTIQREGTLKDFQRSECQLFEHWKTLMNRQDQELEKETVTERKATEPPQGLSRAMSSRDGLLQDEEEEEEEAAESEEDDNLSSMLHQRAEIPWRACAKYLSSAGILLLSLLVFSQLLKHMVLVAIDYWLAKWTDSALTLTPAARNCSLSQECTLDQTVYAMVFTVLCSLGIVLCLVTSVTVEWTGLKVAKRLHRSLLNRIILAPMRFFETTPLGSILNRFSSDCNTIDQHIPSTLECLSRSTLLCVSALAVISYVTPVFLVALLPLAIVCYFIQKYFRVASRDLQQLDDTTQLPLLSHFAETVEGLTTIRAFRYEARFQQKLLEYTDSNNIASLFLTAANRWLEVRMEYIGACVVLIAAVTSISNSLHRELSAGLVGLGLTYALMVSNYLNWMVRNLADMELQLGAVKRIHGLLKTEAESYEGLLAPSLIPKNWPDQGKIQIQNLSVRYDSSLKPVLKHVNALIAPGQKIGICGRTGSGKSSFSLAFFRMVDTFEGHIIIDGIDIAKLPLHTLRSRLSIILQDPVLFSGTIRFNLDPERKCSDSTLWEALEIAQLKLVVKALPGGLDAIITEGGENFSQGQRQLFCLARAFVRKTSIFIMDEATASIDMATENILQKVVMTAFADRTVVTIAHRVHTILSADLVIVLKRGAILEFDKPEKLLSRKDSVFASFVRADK", "assay": "Current inhibition in excised inside-out patches (patch-clamp fluorometry)"}, "[2]": {"tested_on": "wild-type Kir6.2 + SUR1", "design": "method as in Proks et al., 2010; Vedovato et al., 2015", "conditions": "MWC-type model, fits to published data; ref Proks et al., 2010; Vedovato et al., 2015; cited from earlier work"}, "[3]": {"target": "T1, Kir6.2-GFP + SUR1 (Homo sapiens, UniProt Q14654)", "T1 sequence (Q09428 whole entry partner, one chain of several)": "as the sequence (Q09428 whole entry partner) above", "assay": "Current inhibition in excised inside-out patches", "assay_type": "biochemical", "design": "ANAP labelling is specific and only full-length Kir6.2 is expressed at the cell membrane; expressed in transfected cells; host or cells: HEK-293T", "method": "(§1) Currents were measured from patches from cells expressing KATP that were excised in the absence of Mg^2+. Under such conditions, nucleotides can bind to both sites on SUR1, but no activation occurs, allowing inhibitory currents to be measured in isolation ([Gribble et al., 1998]; [Ueda et al., 1999]; [Puljung et al., 2019])."}, "[4]": {"target": "T1, Kir6.2-GFP + SUR1", "assay": "Current inhibition in excised inside-out patches (patch-clamp fluorometry)", "assay_type": "biochemical", "design": "full length, fully ANAP-labelled Kir6.2 protein was produced and successfully trafficked to the membrane in the presence of SUR1; expressed in transfected cells; host or cells: HEK-293T", "method": "as §1\nCurrents were measured as described above."}, "[5]": {"target": "T2, Kir6.2-GFP (no SUR1) (Homo sapiens, UniProt Q14654)", "T2 construct": "ANAP labelling is specific and only full-length Kir6.2 is expressed at the cell membrane; expressed in transfected cells; host or cells: HEK-293T", "T2 sequence (Q14654 1-390)": "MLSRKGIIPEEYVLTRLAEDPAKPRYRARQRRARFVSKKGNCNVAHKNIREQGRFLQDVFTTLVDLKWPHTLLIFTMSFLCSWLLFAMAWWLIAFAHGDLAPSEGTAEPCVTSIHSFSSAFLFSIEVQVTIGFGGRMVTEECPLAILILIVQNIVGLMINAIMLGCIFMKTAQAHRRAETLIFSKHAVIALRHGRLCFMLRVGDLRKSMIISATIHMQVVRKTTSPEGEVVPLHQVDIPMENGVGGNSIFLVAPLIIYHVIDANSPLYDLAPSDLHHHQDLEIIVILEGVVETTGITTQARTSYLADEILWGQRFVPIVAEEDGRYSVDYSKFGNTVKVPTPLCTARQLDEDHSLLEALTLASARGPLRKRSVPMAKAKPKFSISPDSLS", "assay": "Current inhibition in excised inside-out patches", "assay_type": "biochemical", "method": "as §1"}, "[6]": {"tested_on": "second nucleotide binding site of SUR1", "design": "method as in Puljung et al., 2019", "conditions": "ref Puljung et al., 2019, cited from earlier work"}, "[7]": {"conditions": "excised patches, Hill fit with 1-Imax set to 0, n = 3"}, "[8]": {"conditions": "binding to stimulatory second nucleotide binding site of SUR1"}}, "note": "pIC50, pKd: −log10 of the molar value.", "data": [{"compound": "Nc1ncnc2c1ncn2[C@@H]1O[C@H](COP(=O)(O)OP(=O)(O)OP(=O)(O)O)[C@@H](O)[C@H]1O", "note": "[ATP]", "values": [{"measurement": "current inhibition at 10 mM", "setting": "[1]; 10 mM ATP, excised patch", "value": "only partial inhibition"}, {"measurement": "D", "setting": "[2]", "value": 0.03}, {"measurement": "KA", "setting": "[2]", "value": 30000, "unit": "M⁻¹"}, {"measurement": "h (Hill coefficient) current inhibition", "setting": "[3]; Mg2+-free, Hill fit", "value": 1.28}, {"measurement": "h (Hill coefficient) current inhibition", "setting": "[4]; excised inside-out patches, Mg2+-free, Hill fit", "value": 1.42}, {"measurement": "h (Hill coefficient) current inhibition", "setting": "[5]; excised inside-out patches, no SUR1, Mg2+-free, Hill fit", "value": 1.15}]}, {"compound": "CCN(CC)CC", "note": "[triethylamine]", "values": [{"measurement": "h (Hill coefficient) current inhibition", "setting": "[1]; [7]", "value": 1.12}, {"measurement": "h (Hill coefficient) current inhibition", "setting": "[4]; [7]", "value": 0.87}, {"measurement": "pIC50", "setting": "[4]; excised patches, Hill fit with 1-Imax set to 0, n = 3, read-out: IC50 current inhibition", "value": 1.20}]}, {"compound": "MgTNP-ADP", "values": [{"measurement": "KA", "setting": "[6]; [8]", "value": 58000, "unit": "M⁻¹"}, {"measurement": "pKd", "setting": "[6]; [8]", "value": 4.77}, {"measurement": "E (factor by which binding to SUR1 stabilised channel opening)", "setting": "[6]; currents and binding measured in separate preparations", "value": 2.2}]}, {"compound": "CCCCNC(=O)NS(=O)(=O)c1ccc(C)cc1", "note": "[tolbutamide]", "values": [{"measurement": "inhibition at 100 µM", "setting": "[3]; 100 µM tolbutamide, n = 3", "value": 46.5, "unit": "%"}, {"measurement": "inhibition at 100 µM", "setting": "[4]; 100 µM tolbutamide, excised inside-out patches, n = 4", "value": 57.7, "unit": "%"}, {"measurement": "current inhibition by tolbutamide", "setting": "[5]; 100 µM tolbutamide, absence of SUR1, n = 5", "value": "not affected"}]}]}
